Measurements as given in patent US20210046143A1, “METHOD FOR TREATMENT OF THE HUMAN BODY BY THERAPY BY ADMINISTERING A COMPOSITION COMPRISING A PLANT EXTRACT OF THE SPECIE HEDYCHIUM CORONARIUM” (Societe D'exploitation De Produits Pour Les Industries …, priority 2016, published 2021).

Experiments:
Type in all cases: cell-based
[1] = tested on: normal human keratinocytes; experiment: ROS detection with H2DCFDA probe in normal human keratinocytes; settings: 20 minutes
From the text: • 1)—Background Information The aim of the present evaluation was to evaluate the antioxidant and antipollution effects of the extract HCR, against oxidative stress in normal human cultured keratinocytes extracted from abdominal plastic surgery (donor), using the H2DCFDA probe. […] It is cell-permeant and stable. When it penetrates the cell, acetate groups are cleaved by intracellular esterases. The resulting product is the dichlorodihydrofluorescein (or H2DCF), non-fluorescent. […] The probe oxidation is not specific of one type of ROS. The fluorescence is detected at wavelengths of 490 nm (excitation) and 525 nm (emission). […] A XTT assay was previously performed, to check the cells viability, in order to determine the concentrations to be tested, as described in Example 2. • 2)—Evaluation of Antioxidant Effect (H2DCFDA Probe) Normal human keratinocytes were seeded in 96-well microplates and are then treated with the test compound to be tested for 24 hours, before adding the fluorescent probe for detection of ROS and stimulating or not by the pollutant or hydrogen peroxide. This test is based on the use of a detection system, a probe, which is degraded and fluoresces on contact with ROS. […] After incubation, fluorescence was read at 490 nm (excitation) and 525 nm (emission) wavelengths (Tecan Safire II reader). Data are expressed as RFU (fluorescence units). […]

[2] = tested on: NAD+/NADH production by normal human fibroblasts (NHF); experiment: NAD+/NADH titration in fibroblasts, UVA-irradiated or not; settings: Vitamin C 500 μM, UVA-irradiated
Description: (§1) a)—In order to check the effects of UV and the tested product on cells metabolism, ATP and NAD^+/NADH titrations were performed. • (i)—Cells were seeded into 96-wells plates (at a cell density of 5,000 cells per well, i.e. 15,000 NHF/cm^2), in the same medium as previously described, one day before treatment. Then the treatment and irradiation timing was the same: first application for twenty-four hours (in medium without sera), then UVA-irradiation or not (same dose) and finally a second treatment for another twenty-four hours. As formerly, from the beginning to the end of the experiment, cells were incubated at 37° C./5% CO2. […] Measured quantity of this product (absorbance) is proportional to total NAD (NAD^+ and NADH) in each sample. • (v)—The ATP assay kit is an ATP monitoring system based on firefly (Photinus pyralis) luciferase. Added luciferase and D-luciferin react with ATP in samples to produce light, which measure (luminescence) is proportional to the ATP concentration. • b)—Raw data of both ATP and NAD^+/NADH titrations, i.e. luminescence units (RLU) or OD measurements obtained for respective standards, were plotted on graphics to determine standard curves. Then, the concentrations of ATP or NAD^+/NADH measured in the samples were determined. Quantitative values of each condition were averaged. […]

[3] = tested on: Normal human fibroblasts (NHF); experiment: Autophagic activity (MDC assay) in fibroblasts irradiated with blue light; settings: for Decrease of autophagic activity of irradiated fibroblast cells: irradiated at 453 nanometers
Description: • 1)—Background Information The purpose of the study is to evaluate effects of one HCR extracts on autophagic activities of in fibroblast irradiated with 453 nanometers blue light. The cells (normal human fibroblasts or (NHF)) are cultured as primary monolayer. Product to be tested is applied during 24 hours before irradiation and the n the product to be tested is applied during 24 hours . then autophagic activity is measured (MDC). Lysosomes are cytoplasmic organelles that permit recycling of cellular materials that have exceeded their lifetime or are otherwise no longer useful. Their main function is to digest endogeneous or exogeneous substrates (so called autophagy) in eukaryotic cells. Lysosomes break down cellular waste products, fats, carbohydrates, proteins, and other macromolecules into small compounds, which are transferred back into the cytoplasm as new cell-building materials. Indeed, its lipid membrane contains many enzymes, proton pumps and transport proteins. Acid pH is regulated to allow optimum activities of acid hydrolases [1]-[2]. The fluorescent LysoTracker probe is structured to easily insert in living cells (a fluorophore is linked to a weak base that is only partially protonated at neutral pH). This characteristic permits to this labeling/staining to be very selective for acid organelles i.e. the lysosomes. Then, effects of radiations, like blue light for instance, at lysosomal level can be evaluated. Indeed, these radiations lead to free radical formation and affect the normal lysosomes network, its distribution in the cell space. This can be visualized with specific fluorescent probe LysoTracker. Autophagy is an eukaryotic cell process that allow cytoplasmic materials digestion in a vacuole that fuses with the lysosome. Indeed, lysosomes can directly incorporate cytoplasmic fragments (micro-autophagy), or via autophagic vacuoles, named autophagosomes (macro-autophagy, fusion of lysosome and autophagosome is so called autolysosome). Autophagy is an important mechanism that allows the cell to mobilize its energy stocks to defend and destroy its damaged organelles and then avoid serious effects. This process permits elimination and replacement of proteins and non-functional organelles, then to ensure homeostasis. It is an essential cytoprotective mechanism that allows adaptive cell responses to different kinds of stress or damages, as nutritive privation (starvation). So it is necessary to cell survival, but also to other fundamental physiologic phenomena as development, immunity, cell differentiation (including keratinocytes differentiation to corneocytes in the epidermis). It is involved in longevity control, aging, and development of pathologies as cancer or diabetes, infectious, metabolic, or neuro-degenerative diseases. […] Three concentrations of the extract HCR are tested (weight/volume % of dry extract or DE, as it is a liquid extract), each dose being evaluated as quintuplicate (5 wells). Irradiation dose of 453 nm blue light is 40 J/cm^2 (23 mW/cm^2 for 29 minutes). b)—Cells are seeded into 96-wells microplates (at a cell density of 10,000 cells per well, i.e. 30,000 NHF/cm2), 24 hours before treatment (incubation at 37° C./5% CO2). […] Fibroblasts are then treated again with the product (curative effect) for another 24 h (so the total application is 48 h). Cells are seeded in complete medium: Dulbecco's modified Eagle medium or DMEM (Gibco 41966), with antibiotics (Gibco 15140) and 10% of foetal bovine serum or FBS (Gibco 10270). Treatments are done in medium without FBS. Irradiation is done in PBS (phosphate buffer saline). All incubation/treatment times are at 37° C./5% CO2 (except irradiation, done at room temperature). At the end of treatment, wells are delicately rinsed (PBS) and 0.05 mM MDC probe is applied on cells (Sigma 30432) (37° C./5% CO2). After incubation during 30 minutes and washes, fluorescence is measured at 380 nm (excitation) and 525 nm (emission) wavelengths (Tecan Safire II machine). […]

[4] = tested on: mitochondria network of normal human fibroblasts (NHF); experiment: Mitochondrial network protection (MitoTracker staining) in UVA-irradiated fibroblasts; settings: 500 μM, positive control
Description: b)-Normal human fibroblasts (NHF) extracted after plastic surgery from mammary skin dermis of a donor, were cultured as primary monolayers; a)-Fibroblasts were seeded into Petri dishes (at a cell density of 150,000 cells per dish, with a diameter of 60 mm, i.e. 7,700 NHF/cm^2), in the same medium as previously described (complete medium, i.e. with FBS), one day before treatment (incubation at 37° C.; 5% CO2). Each test compound concentration/dose (in one dish each) was then applied for 24 hours (in medium without sera; incubation at 37° C./5% CO2). […] b)-To evaluate the mitochondria staining, cells were incubated with a fluorescent probe (Invitrogen MitoTrackerTM). Cells were observed and photos were taken with x40 objective (Olympus […] microscope and […] Microvision software), with or without appropriate fluorescent filter. The photos allowed the visualization of the mitochondria network or of the whole cells, respectively. • 4)-Evaluation of the Effects on the Metabolic Activity (ATP & NAD^+/NADH Titrations)

[5] = tested on: lysosomes network of normal human fibroblasts (NHF); experiment: Lysosomal network protection (LysoTracker staining) in UVA-irradiated fibroblasts; settings: 500 μM
Description: b)-Normal human fibroblasts (NHF) extracted after plastic surgery from mammary skin dermis of a donor, were cultured as primary monolayers; a)-Fibroblasts seeding was carried out as described in Example 2. b)-Cells were then incubated with a fluorescent probe (Invitrogen LysoTrackerTM). They were observed and photographed with x40 objective (Olympus CK40 microscope and […] Microvision software), with or without appropriate fluorescent filter. The photos allowed the visualization respectively of the lysosomes network or of the whole cells. c)-Fluorescence was quantified with Colombus software, by HCS Pharma (Rennes, France), as mean intensity (3 images for each condition). It is the mean value of intensity for each pixel of staining, contained in the cell area stained with LysoTracker (number of cells of each image is taken into account, as the final value is the mean of all cells values on the image). • 4)-Results

[6] = tested on: ATP production by normal human fibroblasts (NHF); experiment: ATP titration in fibroblasts, UVA-irradiated or not; settings: 500 μM
Description: as §1

c1ccc2c(c1)cc1ccc3cccc4ccc2c1c34 [BaP, benzo(a)pyrene]
Stimulation of ROS production comparatively to non-stimulated acetone solvent control ([1]; BaP 36 μM): +141%

OO [hydrogen peroxide]
Stimulation of ROS production comparatively to unstimulated control ([1]; hydrogen peroxide 1 mM): +808%

O=C1O[C@H]([C@@H](O)CO)C(O)=C1O [vitamin C, L-ascorbic acid]
NAD+/NADH release by UV-irradiated cells [2]: did not show expected positive effect | RFU (means), MDC autophagic activity ([3]; 500 μMoles, irradiated (453 nanometers) NHF): 95 RFU | RFU (means), MDC autophagic activity ([3]; 500 μMoles, non irradiated NHF): 60 ^(***^) RFU | Decrease of autophagic activity of irradiated fibroblast cells ([3]; vitamin C): 14% | Protection of mitochondria network against UV (MitoTracker images) [4]: effects of UVA were less distinct | LysoTracker fluorescence mean intensity ([5]; highly significant): higher | Protection of lysosomes network against UV (LysoTracker images) ([5]; positive control): diminished the effects of UVA | ATP synthesis, change compared to irradiated control [6]: +61%

CC(=O)Oc1c(C)c(C)c2c(c1C)CCC(C)(CCC[C@H](C)CCC[C@H](C)CCCC(C)C)O2 (stereo partly drawn) [vitamin E, α-tocopherol acetate]
RFU (means), MDC autophagic activity ([3]; 200 μMoles, irradiated (453 nanometers) NHF): 86 ^(*^) RFU | RFU (means), MDC autophagic activity ([3]; 200 μMoles, non irradiated NHF): 76 ^(**^) RFU | Decrease of autophagic activity of irradiated fibroblast cells ([3]; vitamin E): 22%
